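GI50 marks 50% less growth. TGI: total growth inhibition.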
Columns and labels:
Test in all cases: NCI tumour cell line growth inhibition, 384-well format
[1] = tested on: UO-31 renal
[2] = tested on: OVCAR-5 ovarian
[3] = tested on: MOLT-4 leukemia
[4] = tested on: DU-145 prostate
[5] = tested on: HL-60(TB) leukemia
[6] = tested on: RPMI-8226 leukemia
[7] = tested on: HCC-2998 colon
[8] = tested on: MDA-MB-468 breast
[9] = tested on: A549 NSCLC
[10] = tested on: SF-268 CNS
[11] = tested on: M14 melanoma
[12] = tested on: K-562 leukemia
[13] = tested on: SR leukemia

C[C@H](N)C(=O)N1C[C@H](CCCB(O)O)[C@](N)(C(=O)O)C1
GI50 [1]: > 100 µM | TGI [1]: > 100 µM | GI50 [2]: > 100 µM | TGI [2]: > 100 µM | GI50 [3]: > 100 µM | TGI [3]: > 100 µM | GI50 [4]: > 100 µM | TGI [4]: > 100 µM | GI50 [5]: > 87.2 µM | TGI [5]: > 100 µM | GI50 [6]: > 100 µM | TGI [6]: > 100 µM | GI50 [7]: > 100 µM | TGI [7]: > 100 µM | GI50 [8]: > 100 µM | TGI [8]: > 100 µM | GI50 [9]: > 100 µM | TGI [9]: > 100 µM | GI50 [10]: > 100 µM | TGI [10]: > 100 µM | GI50 [11]: > 86 µM | TGI [11]: > 100 µM | GI50 [12]: > 100 µM | TGI [12]: > 100 µM | GI50 [13]: > 100 µM | TGI [13]: > 100 µM

From PubChem BioAssay (NCI)
